Test results as given in patent US20040071768A1, “Compositions and methods for treating cancer” (Inex Pharmaceuticals Corporation, priority 1999, published 2004).
Read-outs that look alike come from different tables or passages of the source.

Key:
[1] = Vinorelbine tolerability, multiple dosing (q7d x 3), nude mice; type: in vivo, NCr nu/nu mice; settings: Nudes
Method: Single and multiple (q7dx3) dose MTD studies were performed in tumor-bearing and non-tumor bearing NCr nu/nu mice, as well as healthy, outbred ICR mice.

[2] = test system: MDA-MB-435 breast xenografts
Method: Female NCr nude mice were injected intravenously (q7dx3, beginning day 15) via the lateral tail vein. […] Paclitaxel (⋄) was prepared in […]/12.5% ethanol/75% saline and injected iv (q1dx5) at a dose of 15 mg/kg/dose. Drug-to-lipid ratio was 0.3/1 (w/w). Data points represent median tumor volume (n=6).
(§1) The anti-tumor activity of multiple (q7d3) dose schedules of liposomal vinorelbine was evaluated in several human xenograft tumor models. The goal of this series of studies was to identify the benefits of encapsulation by evaluating a series of doses and determining the therapeutic index in several xenograft models. Models were selected based on the following criteria: (1) activity in the single dose studies, (2) a comprehensive literature review of vinca alkaloid efficacy, (3) a desire to include at least 2-3 models that represent the clinical use of vinorelbine, and (4) a desire to include models with a range of sensitivity to vinorelbine so that improvements resulting from the use of the liposome formulation might be identified. Based on these criteria, MX-1 and MDA-MB-435 breast models, the NCl-H460 NSCLC model and the HT-29 and DLD-1 colon models were chosen.
(§2) Therapeutic index (TI) is a parameter that quantifies the “safety factor” of a particular therapy. TI is a ratio of a toxicity parameter and a biological activity parameter. Therefore, a higher ratio represents a greater potential margin of safety. For these studies, TI is defined as follows: […]
(§3) The minimal effective dose (MED) was set according to NCl activity criteria as the dose resulting in an optimal % T/C of 40. This information was derived from Table 7.

MX-1 breast xenografts = test system: MX-1 breast xenografts
Method: (§4) Female NCr nude mice were injected intravenously (q7dx3) via the lateral tail vein on days indicated by an asterisk (*). […] Drug-to-lipid ratio was 0.3/1 (w/w). Data points represent median tumor volume (n=6).
as §1, §2, §3

[3] = animal studies and clinical trials; cited from earlier work
[4] = test system: NCl H460 non small cell lung xenografts; experiment: Multiple dose (q7dx3) anti-tumor activity, NCl H460 non small cell lung xenograft
Method: Female NCr nude mice were injected intravenously (q7dx3, beginning day 7) via the lateral tail vein. […] Mitomycin C (⋄) was prepared in saline and injected iv (q4dx3) at a dose of 3 mg/kg/dose. Drug-to-lipid ratio was 0.3/1 (w/w). Data points represent median tumor volume (n=6).
as §1, §2, §3

HT29 colon xenografts [5] = experiment: Multiple dose (q7dx3) anti-tumor activity, HT29 colon xenograft; settings: HT-29; for TF (tumor free animals at the end of study): n=6
Method: as §4, §1, §2, §3

HT29 colon xenografts [6] = experiment: Single dose anti-tumor activity, HT29 colon xenograft; type: in vivo; settings: HT-29
Method: Female NCr nude mice were injected intravenously via the lateral tail vein on day 12 post-tumor-implantation with saline (♦), NVB at 30.0 mg/kg (◯) and 25.5 mg/kg (□), or NVB-TCS at 15.0 mg/kg (●) and 11.0 mg/kg (▪) at a drug-to-lipid ratio of 0.3:1 (w/w). The arrow on the x-axis denotes the day of drug administration. Data points represent mean±SEM (n=7). […]
Tumor models investigated included RXF393 (renal), MX-1 (breast), LX-1 (small cell lung cancer), PC-3 (prostate), and HT29 (colon). These models were known to be sensitive to vinorelbine. Tumor fragments were implanted subcutaneously in the flank of NCr nu/nu mice. […] Animal weights and tumor size were determined twice weekly.

## CCC1=C[C@@H]2CN(C1)Cc1c([nH]c3ccccc13)[C@@](C(=O)OC)(c1cc3c(cc1OC)N(C)[C@H]1[C@@](O)(C(=O)OC)[C@H](OC(C)=O)[C@]4(CC)C=CCN5CC[C@]31[C@@H]54)C2 [VRL, 5′-noranhydrovinblastine]
[1]; 5 mg/kg q7d x 3
  DRD: 0/30
[1]; 10 mg/kg q7d x 3
  DRD: 0/37
[1]; 20 mg/kg q7d x 3
  DRD: 2/37
[1]; 25 mg/kg q7d x 3
  DRD: 0/7
[1]; 30 mg/kg q7d x 3
  DRD: 6/18
[2]; 5 mg/kg i.v. q7dx3
  % T/C (optimal % T/C following final treatment): −3%
  DRD (drug related deaths, n = 6): 0
  NCI Score: 2
  T-C (tumor growth delay to 1000 mm^3): 37.5
[2]; 5 mg/kg i.v. q7dx3, n=6
  TF (tumor free animals at the end of study): 0
[2]; 10 mg/kg i.v. q7dx3
  % T/C (optimal % T/C following final treatment): −100%
  DRD (drug related deaths, n = 6): 0
  NCI Score: 3
  T-C (tumor growth delay to 1000 mm^3): >62
[2]; 10 mg/kg i.v. q7dx3, n=6
  TF (tumor free animals at the end of study): 1
[2]; 20 mg/kg i.v. q7dx3
  % T/C (optimal % T/C following final treatment): −100%
  DRD (drug related deaths, n = 6): 2
  NCI Score: 4
  T-C (tumor growth delay to 1000 mm^3): >62
[2]; 20 mg/kg i.v. q7dx3, n=6
  TF (tumor free animals at the end of study): 4
[2]; 30 mg/kg i.v. q7dx3
  % T/C (optimal % T/C following final treatment): −100%
  DRD (drug related deaths, n = 6): 1
  NCI Score: 4
  T-C (tumor growth delay to 1000 mm^3): >62
[2]; 30 mg/kg i.v. q7dx3, n=6
  TF (tumor free animals at the end of study): 3
MX-1 breast xenografts; 5 mg/kg i.v. q7dx3
  % T/C (optimal % T/C following final treatment): 100%
  DRD (drug related deaths, n = 6): 0
  NCI Score: 0
  T-C (tumor growth delay to 1000 mm^3): 0
MX-1 breast xenografts; 5 mg/kg i.v. q7dx3, n=6
  TF (tumor free animals at the end of study): 0
MX-1 breast xenografts; 10 mg/kg i.v. q7dx3
  % T/C (optimal % T/C following final treatment): 38%
  DRD (drug related deaths, n = 6): 0
  NCI Score: 1
  T-C (tumor growth delay to 1000 mm^3): 7.3
MX-1 breast xenografts; 10 mg/kg i.v. q7dx3, n=6
  TF (tumor free animals at the end of study): 0
MX-1 breast xenografts; 20 mg/kg i.v. q7dx3
  % T/C (optimal % T/C following final treatment): −28%
  DRD (drug related deaths, n = 6): 0
  NCI Score: 3
  T-C (tumor growth delay to 1000 mm^3): 28.5
MX-1 breast xenografts; 20 mg/kg i.v. q7dx3, n=6
  TF (tumor free animals at the end of study): 0
[3]
  drug excreted in feces: 40-50%
  drug excreted in urine: ~20%
[4]; 5 mg/kg i.v. q7dx3
  % T/C (optimal % T/C following final treatment): 63%
  DRD (drug related deaths, n = 6): 0
  NCI Score: 0
  T-C (tumor growth delay to 1000 mm^3): 2.8
[4]; 5 mg/kg i.v. q7dx3, n=6
  TF (tumor free animals at the end of study): 0
[4]; 10 mg/kg i.v. q7dx3
  % T/C (optimal % T/C following final treatment): 45%
  DRD (drug related deaths, n = 6): 0
  NCI Score: 0
  T-C (tumor growth delay to 1000 mm^3): 6.2
[4]; 10 mg/kg i.v. q7dx3, n=6
  TF (tumor free animals at the end of study): 0
[4]; 20 mg/kg i.v. q7dx3
  % T/C (optimal % T/C following final treatment): 30%
  DRD (drug related deaths, n = 6): 0
  NCI Score: 1
  T-C (tumor growth delay to 1000 mm^3): 9.1
[4]; 20 mg/kg i.v. q7dx3, n=6
  TF (tumor free animals at the end of study): 0
[4]; 30 mg/kg i.v. q7dx3
  % T/C (optimal % T/C following final treatment): 10%
  DRD (drug related deaths, n = 6): 2
  NCI Score: 1
  T-C (tumor growth delay to 1000 mm^3): 19.1
[4]; 30 mg/kg i.v. q7dx3, n=6
  TF (tumor free animals at the end of study): 0
HT29 colon xenografts [5]; 5 mg/kg i.v. q7dx3
  % T/C (optimal % T/C following final treatment): 67%
  DRD (drug related deaths, n = 6): 0
  NCI Score: 0
  T-C (tumor growth delay to 1000 mm^3): 1.32
  TF (tumor free animals at the end of study): 0
HT29 colon xenografts [5]; 10 mg/kg i.v. q7dx3
  % T/C (optimal % T/C following final treatment): 5%
  DRD (drug related deaths, n = 6): 0
  NCI Score: 1
  T-C (tumor growth delay to 1000 mm^3): 11.9
  TF (tumor free animals at the end of study): 0
HT29 colon xenografts [5]; 20 mg/kg i.v. q7dx3
  % T/C (optimal % T/C following final treatment): −65%
  DRD (drug related deaths, n = 6): 0
  NCI Score: 3
  T-C (tumor growth delay to 1000 mm^3): 29.3
  TF (tumor free animals at the end of study): 1
HT29 colon xenografts [6]; single i.v. dose 25.5 mg/kg
  % T/C (optimal % T/C following final treatment): 35%
  DRD (drug related deaths): 0/7
  MWL (maximum mean weight loss per treatment group): −9.8
  NCI Score: 1
  T-C (tumor growth delay to 1000 mm^3): 12
  TF (tumor free animals at the end of study): 1/7
HT29 colon xenografts [6]; single i.v. dose 30 mg/kg
  % T/C (optimal % T/C following final treatment): 31%
  DRD (drug related deaths): 0/7
  MWL (maximum mean weight loss per treatment group): −9.3
  NCI Score: 1
  T-C (tumor growth delay to 1000 mm^3): 9
  TF (tumor free animals at the end of study): 1/7
